# Laboratory results reported in patent US5639786A (priority 1994, dated 1997).
# Experiments:
# [1] = system: Vibrio cholerae neuraminidase; settings: Meindl and Tuppy 1969; cited from earlier work
# [2] = system: influenza A/Singapore/1/57 (H2N2); assay: microbe, parasite or virus in culture; assay type: cell-based; settings: H2N2, MDCK, 72 h, read-out: I50 Plaque Assay (μg/ml) Flu A
# [3] = biological target: N2 influenza neuraminidase (Influenza A virus (A/Aichi/2/1968(H3N2)), UniProt Q75VQ4); settings: read-out: NA1 (μg/ml), virion X31, MUN substrate, pH 6.5, 15 minutes at 37° C.
# N2 influenza neuraminidase (Influenza A virus (A/Aichi/2/1968(H3N2)), UniProt Q75VQ4), sequence (Q75VQ4 whole entry, looked up): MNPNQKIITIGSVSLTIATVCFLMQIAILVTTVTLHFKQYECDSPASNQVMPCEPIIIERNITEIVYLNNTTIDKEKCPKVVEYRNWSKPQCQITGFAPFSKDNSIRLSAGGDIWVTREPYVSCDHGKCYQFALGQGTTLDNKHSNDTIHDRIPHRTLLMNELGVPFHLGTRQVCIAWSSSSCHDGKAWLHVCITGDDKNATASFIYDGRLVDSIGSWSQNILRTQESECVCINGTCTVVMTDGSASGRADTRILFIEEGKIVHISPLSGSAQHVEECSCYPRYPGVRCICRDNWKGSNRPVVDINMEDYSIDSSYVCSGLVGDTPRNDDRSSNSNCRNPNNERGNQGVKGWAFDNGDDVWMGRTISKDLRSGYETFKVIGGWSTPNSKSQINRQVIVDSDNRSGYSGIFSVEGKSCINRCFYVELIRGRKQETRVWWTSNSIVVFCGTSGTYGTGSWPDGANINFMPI
# [4] = system: influenza B/Victoria/102/85; assay: Inhibition of influenza virus replication in vitro, plaque reduction in MDCK cells (Flu B); assay type: cell-based; settings: 72 h, influenza B/Victoria/102/85, MDCK cells, 3 days, read-out: I50 Plaque Assay (μg/ml) Flu B
# [5] = prior art; cited from earlier work
# [6] = system: influenza and parainfluenza viruses; settings: Palese et al., Virology 1974; cited from earlier work
Compound,IC50 [2],IC50 [3],IC50 [4],also measured
CC(=O)N[C@H]1[C@H]([C@H](O)[C@H](O)CO)OC(C(=O)O)C[C@@H]1O (some centres unmarked) [2-deoxy-N-acetylneuraminic acid],–,–,–,inhibition of Vibrio cholerae neuraminidase [1]: did not inhibit
"CC(=O)N[C@H]1[C@H]([C@H](O)[C@H](O)CO)OC(C(=O)O)=C[C@@H]1NC(=N)NN [Example 1, 5-(Acetylamino)-4-[[amino(aminoimino)methyl]amino]-2,6-anhydro-3,4,5-trideoxy-D-glycero-D-galacto-non-2-enonic acid]",2.9 µg/mL,3.74 µM,3 µg/mL,–
"CC(=O)N[C@H]1[C@H]([C@H](O)[C@H](O)CO)OC(C(=O)O)=C[C@@H]1NC(=N)NO [Example 2, 5-(Acetylamino)-4-[[amino(hydroxyimino)methyl]amino]-2,6-anhydro-3,4,5-trideoxy-D-glycero-D-galacto-non-2-enonic acid]",0.1 µg/mL,1.72 µM,< 0.1 µg/mL,–
"CC(=O)N[C@H]1[C@H]([C@H](O)[C@H](O)CO)OC(C(=O)O)=C[C@@H]1NC(N)=N[N+](=O)[O-] [Example 4, 5-(Acetylamino)-4-[[amino(nitroimino)methyl]amino]-2,6-anhydro-3,4,5-trideoxy-D-glycero-D-galacto-2-enonic acid]",–,–,24 µg/mL,–
CCOC(=O)N=C(N)N[C@H]1C=C(C(=O)O)O[C@@H]([C@H](O)[C@H](O)CO)[C@@H]1NC(C)=O [Example 5],–,–,0.6 µg/mL,–
"O=C(O)C1=CC(O)C(NC(=O)C(F)(F)F)C(C(O)C(O)CO)O1 (centres unmarked) [FANA, 2-deoxy-2,3-dehydro-N-trifluoroacetyl-neuraminic acid]",–,–,–,antiviral activity in vivo [5]: inactive in vivo; inhibition of multi-cycle replication of influenza and parainfluenza viruses in vitro [6]: inhibits multi-cycle replication
